The source made the active and inactive calls. The rule behind the calls is not given here.
Tested on: CRE-BLA reporter cells, beta-lactamase FRET, counterscreen
Test: CRE beta-lactamase reporter activation by analogues – cell-based, purchased analogues, beta-lactamase FRET, counter-screen for S1P2 agonist project, SAR follow-up (AID 874)

SMILES	EC50
Cc1cc(C(=O)COC(=O)Cn2c(=O)oc3ccccc32)c(C)n1Cc1ccccc1	> 44 µM (inactive)
CCNC(=O)CN(CC)CC(=O)c1cc(C)n(Cc2ccccc2)c1C	> 44 µM (inactive)
Cc1cc(C(=O)CN(C)CC(=O)NC2CC2)c(C)n1Cc1ccccc1	> 44 µM (inactive)
Cc1cc(C(=O)COC(=O)C2CCC2)c(C)n1Cc1ccccc1	> 44 µM (inactive)
Cc1cc(C(=O)COC(=O)CCS(=O)(=O)c2ccccc2)c(C)n1Cc1ccccc1	> 44 µM (inactive)
Cc1nc(C)c(C(=O)OCC(=O)c2cc(C)n(Cc3ccccc3)c2C)s1	> 44 µM (inactive)
Cc1cc(C(=O)CN(C)CC(=O)N2CCOCC2)c(C)n1Cc1ccccc1	> 44 µM (inactive)
Cc1cc(C(=O)CSc2nnnn2C)c(C)n1Cc1ccccc1	> 44 µM (inactive)
Cc1cc(C(=O)CN2C(=O)C(=O)N(C3CCCC3)C2=O)c(C)n1Cc1ccccc1	> 44 µM (inactive)
CCC1(CC)NC(=O)N(CC(=O)OCC(=O)c2cc(C)n(Cc3ccccc3)c2C)C1=O	> 44 µM (inactive)
CC(=O)c1cccc(OCC(=O)c2cc(C)n(Cc3ccccc3)c2C)c1	> 44 µM (inactive)
Cc1cc(C(=O)CN2C(=O)NC3(CCOc4ccccc43)C2=O)c(C)n1Cc1ccccc1 (centres undefined)	> 44 µM (inactive)
Cc1cc(C(=O)CN2CCN(C(=O)c3ccco3)CC2)c(C)n1Cc1ccccc1	> 44 µM (inactive)
CCOC(=O)c1cc(C)n(Cc2ccccc2)c1C	> 44 µM (inactive)
COc1ccc(C(N)=O)c(OCC(=O)c2cc(C)n(Cc3ccccc3)c2C)c1	> 44 µM (inactive)
COc1ccc(NC(=O)CN(C)CC(=O)c2cc(C)n(Cc3ccccc3)c2C)cc1	> 44 µM (inactive)
CNC(=O)c1ccc(CN(C)CC(=O)c2cc(C)n(Cc3ccccc3)c2C)cc1	> 44 µM (inactive)
Cc1cc(C(=O)CSc2ncccn2)c(C)n1Cc1ccccc1	> 44 µM (inactive)
Cc1cc(C(=O)CSc2ncn[nH]2)c(C)n1Cc1ccccc1	> 44 µM (inactive)
Cc1cc(C(=O)CN2C(=O)C(=O)N(C)C2=O)c(C)n1Cc1ccccc1	> 44 µM (inactive)

SMILES	EC50
Cc1cc(C(=O)CN(C)CC(=O)N2CCCC2)c(C)n1Cc1ccccc1	> 44 µM (inactive)
Cc1cc(C(=O)Cn2cnc3c2c(=O)n(C)c(=O)n3C)c(C)n1Cc1ccccc1	> 44 µM (inactive)
Cc1cc(C(=O)CN(C)CC(=O)NC(C)C)c(C)n1Cc1ccccc1	> 44 µM (inactive)
CC(=O)c1ccc(OCC(=O)c2cc(C)n(Cc3ccccc3)c2C)cc1	> 44 µM (inactive)
Cc1sc2ncn(CC(=O)c3cc(C)n(Cc4ccccc4)c3C)c(=O)c2c1C	> 44 µM (inactive)
Cc1cc(C(=O)COC(=O)Cn2cnc3ccccc3c2=O)c(C)n1Cc1ccccc1	> 44 µM (inactive)
Cc1cc(C(=O)CN2C(=O)CCC2=O)c(C)n1Cc1ccc2c(c1)OCO2	> 44 µM (inactive)
Cc1cc(C(=O)CSc2nnnn2C(C)(C)C)c(C)n1Cc1ccccc1	> 44 µM (inactive)
Cc1cc(C(=O)Cn2cc(C(F)(F)F)ccc2=O)c(C)n1Cc1ccccc1	> 44 µM (inactive)
Cc1cc(C(=O)COC(=O)C2CSC3(C)CCC(=O)N23)c(C)n1Cc1ccccc1 (centres undefined)	> 44 µM (inactive)
Cc1cc(C(=O)CN2C(=O)CCC2=O)c(C)n1Cc1ccccc1	> 44 µM (inactive)
Cc1cc(C(=O)COC(=O)C(O)c2ccccc2)c(C)n1Cc1ccccc1 (centres undefined)	> 44 µM (inactive)
Cc1cc(C(=O)COC(=O)CN2C(=O)NC(C)(C)C2=O)c(C)n1Cc1ccccc1	> 44 µM (inactive)
Cc1cc(C(=O)CN2C(=O)C(=O)N(Cc3ccccc3)C2=O)c(C)n1Cc1ccc(F)cc1	> 44 µM (inactive)
Cc1cc(C(=O)COc2ccc(C(N)=O)cc2)c(C)n1Cc1ccccc1	> 44 µM (inactive)
Cc1cc(C(=O)CN(C)CC(=O)N(C)C)c(C)n1Cc1ccccc1	> 44 µM (inactive)
Cc1cc(C)nc(SCC(=O)OCC(=O)c2cc(C)n(Cc3ccccc3)c2C)n1	> 44 µM (inactive)
Cc1cc(C(=O)COC(=O)CN2C(=O)C3CCCCC3C2=O)c(C)n1Cc1ccccc1 (centres undefined)	> 44 µM (inactive)
Cc1cc(C(=O)CN2C(=O)NC(Cc3ccccc3)C2=O)c(C)n1Cc1ccccc1 (centres undefined)	> 44 µM (inactive)
Cc1cc(C(=O)CN2C(=O)NC3(CCc4ccccc43)C2=O)c(C)n1Cc1ccccc1 (centres undefined)	> 44 µM (inactive)

SMILES	EC50
Cc1cc(C(=O)CSc2nnc(C3CC3)n2C)c(C)n1Cc1ccccc1	> 44 µM (inactive)
Cc1cc(C(=O)CSc2nnnn2C2CC2)c(C)n1Cc1ccccc1	> 44 µM (inactive)
COc1cccc(C2(C)NC(=O)N(CC(=O)c3cc(C)n(Cc4ccccc4)c3C)C2=O)c1 (centres undefined)	> 44 µM (inactive)
Cc1cc(C(=O)CN(C)CC(=O)NC(C)(C)C)c(C)n1Cc1ccccc1	> 44 µM (inactive)
CCCNC(=O)CN(C)CC(=O)c1cc(C)n(Cc2ccccc2)c1C	> 44 µM (inactive)
CC(=O)Nc1ccc(OCC(=O)c2cc(C)n(Cc3ccccc3)c2C)cc1	> 44 µM (inactive)
Cc1nn(CC(=O)c2cc(C)n(Cc3ccccc3)c2C)c(C)c1[N+](=O)[O-]	> 44 µM (inactive)
Cc1cc(C(=O)CN2C(=O)C(=O)N(Cc3ccccc3)C2=O)c(C)n1Cc1ccco1	> 44 µM (inactive)
COCCNC(=O)CN(C)CC(=O)c1cc(C)n(Cc2ccccc2)c1C	> 44 µM (inactive)
Cc1noc(C)c1C(=O)OCC(=O)c1cc(C)n(Cc2ccccc2)c1C	> 44 µM (inactive)
Cc1cc(C(=O)CN2C(=O)NC(Cc3ccccc3)C2=O)c(C)n1Cc1cccs1 (centres undefined)	> 44 µM (inactive)
Cc1cc(C(=O)Cn2cnc3c(oc4ccccc43)c2=O)c(C)n1Cc1ccccc1	> 44 µM (inactive)
Cc1ccc(C(=O)OCC(=O)c2cc(C)n(Cc3ccccc3)c2C)o1	> 44 µM (inactive)
Cc1cc(C(=O)CN2C(=O)C(=O)N(Cc3ccco3)C2=O)c(C)n1Cc1ccccc1	> 44 µM (inactive)
Cc1cc(C(=O)O)c(C)n1Cc1ccccc1	> 44 µM (inactive)
Cc1cc(C(=O)CN2C(=O)C(=O)N(Cc3ccccc3)C2=O)c(C)n1Cc1ccccc1	> 44 µM (inactive)
CC(=O)Nc1ccc(SCC(=O)c2cc(C)n(Cc3ccccc3)c2C)cc1	> 44 µM (inactive)
Cc1cc(C(=O)COC(=O)c2ccco2)c(C)n1Cc1ccccc1	> 44 µM (inactive)
Cc1cc(C(=O)CN(C)Cc2ccco2)c(C)n1Cc1ccccc1	> 44 µM (inactive)
